Measurements reported in patent US7790721B2, “Pyrroloquinoxalinone inhibitors of poly(ADP-ribose)polymerase” (Abbott Laboratories, priority 2006, dated 2010).
Like-named read-outs stand apart in the source and are kept apart here. One block for each molecule: values may come before it.

Assays:
PARP in C41 cells = target: T1, PARP in C41 cells (Homo sapiens, UniProt P09874); assay: Cellular PARP assay (PAR formation after H2O2 DNA damage, anti-PAR immunofluorescence); assay type: cell-based; details: compound 30 minutes, then 1 mM H2O2 for 10 minutes, FITC signal normalized with DAPI, read-out: Cell, EC50
T1 construct: endogenous in cells; host or cells: C41 cells
T1 sequence (P09874 whole entry): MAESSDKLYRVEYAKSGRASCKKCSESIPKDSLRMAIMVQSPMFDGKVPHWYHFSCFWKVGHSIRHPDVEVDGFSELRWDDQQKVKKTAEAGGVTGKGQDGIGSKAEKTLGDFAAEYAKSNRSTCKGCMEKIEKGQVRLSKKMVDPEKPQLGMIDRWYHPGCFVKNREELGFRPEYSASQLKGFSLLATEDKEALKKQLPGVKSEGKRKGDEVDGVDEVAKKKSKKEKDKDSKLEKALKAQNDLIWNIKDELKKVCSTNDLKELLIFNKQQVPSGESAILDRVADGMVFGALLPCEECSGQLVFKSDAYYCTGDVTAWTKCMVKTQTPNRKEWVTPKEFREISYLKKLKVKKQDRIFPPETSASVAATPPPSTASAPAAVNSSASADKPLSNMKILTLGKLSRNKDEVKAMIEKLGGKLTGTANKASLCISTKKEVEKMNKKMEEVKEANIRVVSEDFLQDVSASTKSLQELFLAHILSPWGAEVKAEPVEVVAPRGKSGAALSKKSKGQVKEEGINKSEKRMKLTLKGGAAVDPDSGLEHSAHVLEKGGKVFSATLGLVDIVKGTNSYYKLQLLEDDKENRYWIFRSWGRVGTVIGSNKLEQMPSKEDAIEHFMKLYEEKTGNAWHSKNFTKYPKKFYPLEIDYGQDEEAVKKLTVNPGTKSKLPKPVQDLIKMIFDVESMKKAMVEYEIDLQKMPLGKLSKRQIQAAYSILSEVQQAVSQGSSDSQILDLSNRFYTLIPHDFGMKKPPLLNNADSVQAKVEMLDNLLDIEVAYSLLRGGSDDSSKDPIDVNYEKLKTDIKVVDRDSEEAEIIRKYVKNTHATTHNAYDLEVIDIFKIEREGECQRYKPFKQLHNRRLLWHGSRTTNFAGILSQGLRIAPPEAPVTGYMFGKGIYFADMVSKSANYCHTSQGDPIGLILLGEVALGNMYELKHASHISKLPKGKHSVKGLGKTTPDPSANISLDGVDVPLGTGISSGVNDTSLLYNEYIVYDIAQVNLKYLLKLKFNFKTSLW
Description: C41 cells were treated with a compound of this invention for 30 minutes in 96 well plate. PARP was then activated by damaging DNA with 1 mM H2O2 for 10 minutes. The cells were then washed with ice-cold PBS once and fixed with pre-chilled methanol:acetone (7:3) at −20° C. for 10 minutes. After air-drying, the plates were rehydrated with PBS and blocked 5% non-fat dry milk in PBS-TWEEN20® (Sigma, St. Louis, Mo.) (0.05%) (blocking solution) for 30 minutes at room temperature. The cells were incubated with anti-PAR antibody 10H (1:50) in Blocking solution at 37° C. for 60 minutes followed by washing with PBS-TWEEN20® 5 times, and incubation with goat anti-mouse fluorescein 5(6)-isothiocyanate-coupled antibody (1:50) and 1 μg/ml 4′,6-diamidino-2-phenylindole (DAPI) in blocking solution at 37° C. for 60 minutes. […] The PARP activity (FITC signal) was normalized with cell numbers (DAPI).

PARP-1 = target: T2, PARP-1 (Homo sapiens, UniProt P09874); assay: PARP1 assay (inhibition of PARP, [3H]-NAD+ / biotinylated histone H1, FlashPlate scintillation); assay type: biochemical
T2 construct: purchased Trevigen (Gaithersburg, Md.); host or cells: E. coli
T2 sequence (P09874 whole entry): as above
Description: Nicotinamide[2,5′,8-3H]adenine dinucleotide and strepavidin SPA beads were purchased from Amersham Biosiences (Buckinghamshire, U.K.). […] NAD^+, histone, aminobenzamide, 3-amino benzamide and Calf Thymus DNA (dcDNA) were purchased from Sigma (St. Louis, Mo.). […] Biotinylated histone H1 was prepared by treating the protein with Sulfo-NHS-LC-Biotin from Pierce (Rockford, Ill.). The biotinylation reaction was conducted by slowly and intermittently adding 3 equivalents of 10 mM Sulfo-NHS-LC-Biotin to 100 μM Histone H1 in phosphate-buffered saline, pH 7.5, at 4° C. with gentle vortexing over 1 minute followed by subsequent 4° C. incubation for 1 hour. Streptavidin coated (FLASHPLATE PLUS®) microplates were purchased from Perkin Elmer (Waltham, Mass.).
PARP1 assay was conducted in PARP assay buffer containing 50 mM Tris pH 8.0, 1 mM DTT, 4 mM MgCl2. […] Auto reactions utilizing SPA bead-based detection were carried out in 100 μL volumes in white 96 well plates. Reactions were initiated by adding 50 μl of 2× NAD^+ substrate mixture to 50 μL of 2× enzyme mixture containing PARP and DNA. […] 170 μL of the stopped reaction mixtures were transferred to streptavidin FLASHPLATE PLUS®, incubated for 1 hour, and counted using a TOPCOUNT® microplate scintillation counter from Perkin Elmer (Waltham, Mass.).

[1] = recombinant human PARP, 1 nM enzyme, 1.5 μM [3H]-NAD+, inhibition curves at various substrate concentrations, read-out: PARP-1 (Ki)

Compound: O=c1[nH]c2cc(CN3CCCC3)ccc2n2cccc12 [Example 7, 7-(pyrrolidin-1-ylmethyl)pyrrolo[1,2-a]quinoxalin-4(5H)-one]
EC50 (PARP in C41 cells): 5.4 nM | Ki (PARP-1): 6 nM

Compound: O=c1[nH]c2ccc(CNC3CC3)cc2n2cccc12 [Example 12, 8-((cyclopropylamino)methyl)pyrrolo[1,2-a]quinoxalin-4(5H)-one]
EC50 (PARP in C41 cells): 13 nM | Ki (PARP-1): 32 nM

Compound: CN(C)Cc1ccc2c(c1)NC(=O)C1CCCN21 (centres unmarked) [Example 44, 7-[(dimethylamino)methyl]-1,2,3,3a-tetrahydropyrrolo[1,2-a]quinoxalin-4(5H)-one]
EC50 (PARP in C41 cells): 143 nM | Ki (PARP-1): 60 nM

Compound: CN1CCN(Cc2ccc3c(c2)NC(=O)C2CCCN32)CC1 (centres unmarked) [Example 48, 7-[(4-methylpiperazin-1-yl)methyl]-1,2,3,3a-tetrahydropyrrolo[1,2-a]quinoxalin-4(5H)-one]
Ki (PARP-1; [1]): > 9500 nM

Compound: CN(Cc1ccccc1)Cc1ccc2c(c1)NC(=O)C1CCCN21 (centres unmarked) [Example 49, 7-{[benzyl(methyl)amino]methyl}-1,2,3,3a-tetrahydropyrrolo[1,2-a]quinoxalin-4(5H)-one]
Ki (PARP-1; [1]): 1350 nM

Compound: CC(C)N(C)Cc1ccc2c(c1)NC(=O)C1CCCN21 (centres unmarked) [Example 50, 7-{[isopropyl(methyl)amino]methyl}-1,2,3,3a-tetrahydropyrrolo[1,2-a]quinoxalin-4(5H)-one]
Ki (PARP-1; [1]): 1960 nM

Compound: CS(=O)(=O)N(Cc1ccc2[nH]c(=O)c3cccn3c2c1)C1CC1 [Example 51, N-cyclopropyl-N-[(4-oxo4,5-dihydropyrrolo[1,2-a]quinoxalin-8-yl)methyl]methanesulfonamide]
Ki (PARP-1; [1]): 779 nM

Compound: O=C1CCCN1Cc1ccc2c(c1)[nH]c(=O)c1cccn12 [Example 52, 7-[(2-oxopyrrolidin-1-yl)methyl]pyrrolo[1,2-a]quinoxalin-4(5H)-one]
Ki (PARP-1; [1]): 698 nM

Compound: CCS(=O)(=O)N(Cc1ccc2[nH]c(=O)c3cccn3c2c1)C1CCC1 [Example 53, N-cyclobutyl-N-[(4-oxo-4,5-dihydropyrrolo[1,2-a]quinoxalin-8-yl)methyl]ethanesulfonamide]
Ki (PARP-1; [1]): 917 nM

Compound: CC(C)N(Cc1ccc2[nH]c(=O)c3cccn3c2c1)S(=O)(=O)c1ccccc1 [Example 54, N-isopropyl-N-[(4-oxo-4,5-dihydropyrrolo[1,2-a]quinoxalin-8-yl)methyl]benzenesulfonamide]
Ki (PARP-1; [1]): 635 nM

Compound: CC(=O)N(Cc1ccc2c(c1)[nH]c(=O)c1cccn12)C1CCC1 [Example 55, N-cyclobutyl-N-[(4-oxo-4,5-dihydropyrrolo[1,2-a]quinoxalin-7-yl)methyl]acetamide]
Ki (PARP-1; [1]): 1500 nM

Compound: CS(=O)(=O)N(Cc1ccc2c(c1)[nH]c(=O)c1cccn12)C1CC1 [Example 56, N-cyclopropyl-N-[(4-oxo-4,5-dihydropyrrolo[1,2-a]quinoxalin-7-yl)methyl]methanesulfonamide]
Ki (PARP-1; [1]): 909 nM

Compound: O=C1NCc2cc(CN3CCCCC3)ccc2-n2cccc21 [Example 57, 8-(piperidin-1-ylmethyl)-5,6-dihydro-4H-pyrrolo[1,2-a][1,4]benzodiazepin4-one]
Ki (PARP-1; [1]): 1140 nM

Compound: O=C1NCc2cc(CNC3CCCCC3)ccc2-n2cccc21 [Example 58, 8-[(cyclohexylamino)methyl]-5,6-dihydro-4H-pyrrolo[1,2-a][1,4]benzodiazepin4-one]
Ki (PARP-1; [1]): 1440 nM

Compound: COC(=O)CNCc1ccc2c(c1)[nH]c(=O)c1cccn12 [Example 59, Methyl N-[(4-oxo4,5-dihydropyrrolo[1,2-a]quinoxalin-7-yl)methyl]glycinate]
Ki (PARP-1; [1]): 534 nM

Compound: O=C(O)CNCc1ccc2c(c1)[nH]c(=O)c1cccn12 [Example 60, N-[(4-oxo-4,5-dihydropyrrolo[1,2-a]quinoxalin-7-yl)methyl]glycine]
Ki (PARP-1; [1]): 318 nM

Compound: O=C(NCCCN1CCOCC1)c1ccc2c(c1)[nH]c(=O)c1cccn12 [Example 63, N-(3-morpholin-4-ylpropyl)-4-oxo-4,5-dihydropyrrolo[1,2-a]quinoxaline-7-carboxamide]
Ki (PARP-1; [1]): 211 nM

Compound: O=C(NCC(=O)N1CCOCC1)c1ccc2c(c1)[nH]c(=O)c1cccn12 [Example 64, N-(2-morpholino-2-oxoethyl)-4-oxo-4,5-dihydropyrrolo[1,2-a]quinoxaline-7-carboxamide]
Ki (PARP-1; [1]): 369 nM

Compound: CN(C)CCNCc1ccc2c(c1)[nH]c(=O)c1cccn12 [Example 65, 7-({[2-(dimethylamino)ethyl]amino}methyl)pyrrolo[1,2-a]quinoxalin-4(5H)-one]
Ki (PARP-1; [1]): 427 nM

Compound: CN(C)CCNC(=O)c1ccc2c(c1)[nH]c(=O)c1cccn12 [Example 68, N-[2-(dimethylamino)ethyl]-4-oxo-4,5-dihydropyrrolo[1,2-a]quinoxaline-7-carboxamide]
Ki (PARP-1; [1]): 1630 nM

Compound: O=C(NCC(=O)N1CCCC1)c1ccc2c(c1)[nH]c(=O)c1cccn12 [Example 73, 4-oxo-N-(2-oxo-2-(pyrrolidin-1-yl)ethyl)-4,5-dihydropyrrolo[1,2-a]quinoxaline-7-carboxamide]
Ki (PARP-1; [1]): 874 nM

Compound: CN(C)C1CCC(NC(=O)c2ccc3c(c2)[nH]c(=O)c2cccn23)CC1 (centres unmarked) [Example 74, N-[4-(dimethylamino)cyclohexyl]-4-oxo4,5-dihydropyrrolo[1,2-a]quinoxaline-7-carboxamide]
Ki (PARP-1; [1]): 776 nM

Compound: O=C(Nc1cccc(S(=O)(=O)N2CCCCC2)c1)c1ccc2c(c1)[nH]c(=O)c1cccn12 [Example 75, 4-oxo-N-[3-(piperidin-1-ylsulfonyl)phenyl]4,5-dihydropyrrolo[1,2-a]quinoxaline-7-carboxamide]
Ki (PARP-1; [1]): 1640 nM

Compound: CN(C)C(=O)c1ccc2c(c1)[nH]c(=O)c1cccn12 [Example 79, N,N-dimethyl-4-oxo-4,5-dihydropyrrolo[1,2-a]quinoxaline-7-carboxamide]
Ki (PARP-1; [1]): 615 nM

Compound: O=C(c1ccc2c(c1)[nH]c(=O)c1cccn12)N1CCCNCC1 [Example 88, 7-(1,4-diazepan-1-ylcarbonyl)pyrrolo[1,2-a]quinoxalin-4(5H)-one]
Ki (PARP-1; [1]): 8690 nM

Continued, in another order:

Ki (PARP-1; [1]): 44 nM
Compound: CC(C)NCc1ccc2[nH]c(=O)c3cccn3c2c1 [Example 13, 8-((isopropylamino)methyl)pyrrolo[1,2-a]quinoxalin-4(5H)-one]
EC50 (PARP in C41 cells): 37 nM

Ki (PARP-1; [1]): 23 nM
Compound: CN1CCN(CCCNC(=O)c2ccc3c(c2)[nH]c(=O)c2cccn23)CC1 [Example 66, N-[3-(4-methylpiperazin-1-yl)propyl]-4-oxo4,5-dihydropyrrolo[1,2-a]quinoxaline-7-carboxamide]
EC50 (PARP in C41 cells): 32 nM

Ki (PARP-1; [1]): 129 nM
Compound: O=c1[nH]c2cc(CNCCCN3CCCCC3)ccc2n2cccc12 [Example 69, 7-{[(3-piperidin-1-ylpropyl)amino]methyl}pyrrolo[1,2-a]quinoxalin-4(5H)-one]

Ki (PARP-1; [1]): 139 nM
Compound: O=C(NCCCN1CCCCC1)c1ccc2c(c1)[nH]c(=O)c1cccn12 [Example 70, 4-oxo-N-(3-piperidin-1-ylpropyl)-4,5-dihydropyrrolo[1,2-a]quinoxaline-7-carboxamide]

Ki (PARP-1; [1]): 182 nM
Compound: O=c1[nH]c2cc(CNCCN3CCCCC3)ccc2n2cccc12 [Example 71, 7-{[(2-piperidin-1-ylethyl)amino]methyl}pyrrolo[1,2-a]quinoxalin-4(5H)-one]

Ki (PARP-1; [1]): 163 nM
Compound: CN(C)C1CCC(NCc2ccc3c(c2)[nH]c(=O)c2cccn23)CC1 (centres unmarked) [Example 72, 7-({[4-(dimethylamino)cyclohexyl]amino}methyl)pyrrolo[1,2-a]quinoxalin-4(5H)-one]

Ki (PARP-1; [1]): 149 nM
Compound: O=C(CNCc1ccc2c(c1)[nH]c(=O)c1cccn12)N1CCCC1 [Example 76, 7-((2-oxo-2-(pyrrolidin-1-yl)ethylamino)methyl)pyrrolo[1,2-a]quinoxalin-4(5H)-one]

Ki (PARP-1; [1]): 86 nM
Compound: O=C(NCCN1CCSCC1)c1ccc2c(c1)[nH]c(=O)c1cccn12 [Example 78, 4-oxo-N-(2-thiomorpholin-4-ylethyl)-4,5-dihydropyrrolo[1,2-a]quinoxaline-7-carboxamide]

Ki (PARP-1; [1]): 113 nM
Compound: CCN1CCCC(NC(=O)c2ccc3c(c2)[nH]c(=O)c2cccn23)C1 (centres unmarked) [Example 80, N-(1-ethylpiperidin-3-yl)4-oxo-4,5-dihydropyrrolo[1,2-a]quinoxaline-7carboxamide]

Ki (PARP-1; [1]): 94 nM
Compound: O=C(NCCCCc1ccccc1)c1ccc2c(c1)[nH]c(=O)c1cccn12 [Example 81, 4-oxo-N-(4-phenylbutyl)-4,5-dihydropyrrolo[1,2-a]quinoxaline-7-carboxamide]

Ki (PARP-1; [1]): 58 nM
Compound: O=C(Nc1ccc(N2CCN(Cc3ccccc3)CC2)cc1)c1ccc2c(c1)[nH]c(=O)c1cccn12 [Example 83, N-[4-(4-benzylpiperazin-1-yl)phenyl]-4-oxo4,5-dihydropyrrolo[1,2-a]quinoxaline-7-carboxamide]

Ki (PARP-1; [1]): 98 nM
Compound: O=C(Nc1nccs1)c1ccc2c(c1)[nH]c(=O)c1cccn12 [Example 84, 4-oxo-N-1,3-thiazol-2-yl-4,5-dihydropyrrolo[1,2-a]quinoxaline-7-carboxamide]

Ki (PARP-1; [1]): 16 nM
Compound: O=C(c1ccc2c(c1)[nH]c(=O)c1cccn12)N1CCCCC1 [Example 85, 7-(piperidin-1-ylcarbonyl)pyrrolo[1,2-a]quinoxalin-4(5H)-one]
EC50 (PARP in C41 cells): 23 nM

Ki (PARP-1; [1]): 35 nM
Compound: NC1CCN(Cc2ccc3c(c2)[nH]c(=O)c2cccn23)CC1 [Example 86, 7-[(4-aminopiperidin-1-yl)methyl]pyrrolo[1,2-a]quinoxalin-4(5H)-one]
EC50 (PARP in C41 cells): 204 nM

Ki (PARP-1; [1]): 77 nM
Compound: NC1CCN(C(=O)c2ccc3c(c2)[nH]c(=O)c2cccn23)CC1 [Example 87, 7-[(4-aminopiperidin-1-yl)carbonyl]pyrrolo[1,2-a]quinoxalin-4(5H)-one]
